Each structure is given as a SMILES string. Read-outs that look alike come from different tables or passages of the source.

The nature of data set [1]: Parallel artificial membrane permeability assay (PAMPA). The note with it: 50 μM, 25 ℃, 3 h, verapamil = 100%, ranitidine = 0%. In outline:
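Donor wells held 50 μM compound (DMSO <1% v/v, diluted from 10 mM stocks) in buffer; filter membrane coated with 2% w/v DOPC in n-dodecane. Sandwich incubated 3 h at 25 ℃, then donor and acceptor drug amounts quantified by UV spectra (220–400 nm) against reference standards.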

Data set [2] concerns multiple myeloma RPMI8226. The data set can be described thus: Cell viability, resazurin assay, RPMI8226. The note with it: for IC50: Homo sapiens.
Description: (§2) Cells were maintained in a humidified incubator at 37 °C in 5% CO2, and cell viability was determined with the resazurin assay (Cayman Chemical, USA) after the incubation with compounds for indicated concentrations and times or DMSO as control.[72]
The target in data set [3] is T1, ERp57 (PDIA3) (Homo sapiens, UniProt P30101).
T1 sequence (P30101 25-505): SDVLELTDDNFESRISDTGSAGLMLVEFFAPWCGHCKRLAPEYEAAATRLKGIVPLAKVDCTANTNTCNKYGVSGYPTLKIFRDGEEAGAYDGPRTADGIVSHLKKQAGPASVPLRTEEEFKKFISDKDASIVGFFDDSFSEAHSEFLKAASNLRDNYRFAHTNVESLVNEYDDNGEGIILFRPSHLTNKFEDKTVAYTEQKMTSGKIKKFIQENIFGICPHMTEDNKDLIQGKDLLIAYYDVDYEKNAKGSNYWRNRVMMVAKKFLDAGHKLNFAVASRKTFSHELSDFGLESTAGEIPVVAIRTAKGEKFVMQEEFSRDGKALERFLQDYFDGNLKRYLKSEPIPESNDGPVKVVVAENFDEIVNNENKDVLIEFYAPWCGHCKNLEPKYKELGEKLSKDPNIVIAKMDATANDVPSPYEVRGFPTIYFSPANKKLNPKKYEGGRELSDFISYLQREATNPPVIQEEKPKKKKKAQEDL
The data set can be described thus: ERp57 reductase assay (Di-E-GSSG). Type of data set: biochemical. An excerpt: (§1) In addition to PDI, ERp57 (PDIA3) and ERp72 (PDIA4) are two other major members of the PDI family in both platelets and A549 cells.[62],[63]

The subject of data set [4] is breast cancer MDA-MB-231. The data set can be described thus: Cell viability, resazurin assay, MDA-MB-231. Particulars: Homo sapiens, MDA-MB-231, 24 h, read-out: MDA-MB-231 IC50.
Description: as §2
The target in data set [5] is platelet surface PDI (Homo sapiens, UniProt P07237). The data set can be described thus: Cell surface PDI reductase activity on intact human platelets (Di-E-GSSG assay).
Description: In this assay, a nonfluorescent substrate, dieosin glutathione disulfide (Di-E-GSSG), was reduced into a fluorescent product eosin-glutathione (E-GSH) by platelet surface PDI in the presence of 5 μM dithiothreitol (DTT).
For data set [6], the target named is T2, ERp72 (PDIA4) (Homo sapiens, UniProt P13667).
T2 sequence (P13667 21-645): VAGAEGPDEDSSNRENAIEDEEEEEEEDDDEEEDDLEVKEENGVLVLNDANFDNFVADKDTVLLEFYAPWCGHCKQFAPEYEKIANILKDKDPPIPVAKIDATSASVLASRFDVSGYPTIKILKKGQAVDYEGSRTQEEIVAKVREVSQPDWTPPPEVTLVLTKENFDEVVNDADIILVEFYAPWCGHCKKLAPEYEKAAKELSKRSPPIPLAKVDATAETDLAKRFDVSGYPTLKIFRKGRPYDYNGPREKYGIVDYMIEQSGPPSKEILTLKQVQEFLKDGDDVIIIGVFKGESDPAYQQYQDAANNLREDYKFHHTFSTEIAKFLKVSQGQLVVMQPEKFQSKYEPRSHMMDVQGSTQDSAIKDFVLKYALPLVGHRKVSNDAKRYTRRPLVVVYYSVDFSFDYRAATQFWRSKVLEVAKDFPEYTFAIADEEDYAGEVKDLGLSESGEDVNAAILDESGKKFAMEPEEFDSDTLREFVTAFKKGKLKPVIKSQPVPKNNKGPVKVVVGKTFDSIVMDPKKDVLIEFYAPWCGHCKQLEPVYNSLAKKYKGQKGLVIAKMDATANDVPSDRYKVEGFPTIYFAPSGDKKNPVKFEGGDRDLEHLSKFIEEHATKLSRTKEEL
The data set can be described thus: ERp72 reductase assay (Di-E-GSSG). It counts as biochemical. The note with it: human recombinant.
Description: as §1

In data set [7] the test system is washed human platelets coincubated with A549 cancer cells. The data set can be described thus: Tumor cell-induced platelet secretion (PDGF, ATP). Type of data set: cell-based. As to the method: (a) Washed human platelets were coincubated with A549 cancer cells under the same conditions as described in Figure 4. Secretion of PDGF and ATP were determined with the enzyme-linked immunosorbent assay (ELISA) and bioluminescent assay, respectively. (b) A549 cancer cells were coincubated with washed human platelets at 37 °C and 5% CO2 in a cell culture incubator for 48 h. After washing with PBS, the numbers of viable cancer cells were determined by trypan blue exclusion. Data are mean ± SEM of at least three independent experiments.
Washed human platelets were coincubated with cancer cells under the same conditions as described in the TCIPA assay. After a 25 min incubation in the aggregometer, the samples were centrifuged at 13,000g for 1 min. The concentrations of PDGF-BB and ATP in the supernatants were determined using an ELISA kit (Abcam, Cambridge, UK) and an ATP bioluminescent assay kit (Sigma, MO, USA), respectively.[52]

platelet surface PDI, sequence (P07237 18-508): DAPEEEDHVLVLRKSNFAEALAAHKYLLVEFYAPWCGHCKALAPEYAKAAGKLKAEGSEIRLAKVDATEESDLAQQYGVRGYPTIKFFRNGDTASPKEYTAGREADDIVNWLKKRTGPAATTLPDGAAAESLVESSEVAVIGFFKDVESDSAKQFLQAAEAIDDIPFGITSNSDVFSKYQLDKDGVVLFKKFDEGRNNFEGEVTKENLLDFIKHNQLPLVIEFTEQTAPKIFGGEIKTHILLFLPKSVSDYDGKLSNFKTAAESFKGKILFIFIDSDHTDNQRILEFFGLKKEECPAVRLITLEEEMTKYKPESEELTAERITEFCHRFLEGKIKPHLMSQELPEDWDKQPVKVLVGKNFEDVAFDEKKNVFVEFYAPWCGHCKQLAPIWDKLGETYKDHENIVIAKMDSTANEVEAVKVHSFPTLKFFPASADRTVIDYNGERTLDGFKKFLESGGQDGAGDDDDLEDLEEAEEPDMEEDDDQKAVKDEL

As to `CC(=O)OC1O[C@H](CSC2=CC(=O)c3cccc(O)c3C2=O)[C@@H](OC(C)=O)C(OC(C)=O)[C@H]1OC(C)=O` (stereo in doubt) [Compound 18, 2-(1,2,3,4-Tetra-O-acetyl-6-deoxy-6-thio-α-D-glucopyranose)-8-hydroxynaphthalene-1,4-dione], the “Permeability (%)” value in data set [1] was determined as 10.64%. Further, the “S.I. (EAhy926/RPMI8226), selectivity index” value in data set [2] (24 h IC50 ratio) is 12.8. Further, the IC50 turned out to be 0.57 ± 0.01 µM in data set [2] (RPMI-8226, 24 h, read-out: RPMI8226 IC50); 0.061 µM in data set [2] (RPMI-8226, 72 h, read-out: RPMI8226 IC50, 72 h); 6.98 ± 1.78 µM in data set [3] (human recombinant, Di-E-GSSG); 6.96 ± 0.47 µM in data set [4]; 0.42 ± 0.07 µM in data set [5]; 13.7 ± 0.66 µM in data set [6]. Further, the “concentrations inhibiting ERp57 and ERp72 relative to PDI” value in data set [3] (ERp57 and ERp72 together, fold higher than required to inhibit PDI) was 4 to 7 fold. Further, the “tumor cell-induced increase in extracellular PDGF and ATP (platelet secretion)” value in data set [7] was “reduced”.

Source of the values: publication PMC10945480 (Journal of Medicinal Chemistry, 2024).
